For data set [1] the following is noted: orally delivered; mice, rats, hamsters and guinea pigs; cited from earlier work.
Data set [2] deals with myocardial infarction induced interstitial fibrosis. The experiment in a line: Anti-fibrosis effect in a rat model of myocardial infarction (interstitial fibrosis, Masson's Trichrome staining). The data set is classed as in vivo. From the text:
The present study assessed the effect of dextran sulfate in inhibiting or reducing fibrosis in a rat model of myocardial infarction (MI).
The myocardial infarction model in rat involved ligations of the left coronary artery permanently with an intramural stitch. The surgery caused obstruction of the blood flow and subsequently to severe ischemic damage and cardiac walls infarct.
In total 120 female SD rats having an average body weight of 178 g at study initiation (Day 0) were obtained from Harlan Laboratories, Israel. Animals were fed ad libitum a commercial rodent diet (Teklad Certified Global 18% Protein Diet). Animals had free access to autoclaved and acidified drinking water (pH between 2.5 and 3.5) obtained from the municipality supply. Animals were housed under standard laboratory conditions, air conditioned and filtered (HEPA F6/6) with adequate fresh air supply (minimum air changes/hour). Animals were kept in a climate controlled environment with a temperatures range of 20-24° C. and RH range of 30-70% with 12 hours light and 12 hours dark cycle.
Dextran sulfate with an average molecular weight within a range of 5-7 kDa was dissolved in 0.9% NaCl (saline) (Teva Pharmaceutical Industries Ltd) to be injected subcutaneous at doses of 15 mg/kg or 3 mg/kg. […]
Masson's Trichrome Staining was used for fibrosis evaluation. […] The sections were visualized in a computer-imaging system and infarct size was marked and calculated using the ImageJ program. For each animal, five serial sections including one containing the ligature were analyzed and the mean value of all sections for each heart was treated as one value for statistical analysis. […]
Interstitial fibrosis in the marginal area of the infarct was estimated manually in heart sections stained with Masson's Trichrome Staining. The area of interstitial fibrosis was calculated as the percent of the total area of the left ventricle. For each rat five cross-sections were analyzed.

Entries after “also recorded” stand apart in the source; their conditions may differ.

Consider Dextran sulfate, for which, in data set [1], the “induction of colitis and intestinal fibrosis” value is “known to induce colitis and intestinal fibrosis”. Also, the “interstitial fibrosis compared to vehicle control group 1M (in words)” value in data set [2] (group 2M: 15 mg/kg s.c., 3 times a week for 3 weeks, P<0.01, five weeks post-infarction) is on record as “significant suppression of myocardial infarction induced interstitial fibrosis; also recorded: significantly decreased fibrosis”. Besides, the “extent of interstitial fibrosis (area of interstitial fibrosis as percent of the total area of the left ventricle)” value in data set [2] (group 2M: 15 mg/kg s.c., 3 times a week for 3 weeks, female SD rats, margin zone of infarct, day 36 after MI, vehicle group 1M 22.7±1.9%) was found to be 11.9±0.9%. Moreover, the “extent of interstitial fibrosis compared to vehicle control group 1M (in words)” value in data set [2] (groups 3M-5M: 15 mg/kg s.c. 3 times a week for 1 week, 15 mg/kg single dose, 3 mg/kg 3 times a week for 1 week, day 36 after MI) is “also lower in the other dextran sulfate treated groups 3M-5M, although the difference was not significant”.

The values above are taken from patent US10478451B2, “Use of dextran sulfate” (TX Medic AB, priority 2015, dated 2019).
